Our source for the Ki values is BindingDB's records for doi:10.1021/jm030418i (Abbott Laboratories, 2004).

What is called Ki is the equilibrium dissociation constant of an inhibitor or competing ligand from its target. High values mean lower affinity, low ones higher affinity.

The target in the experiment is Gonadotropin-releasing hormone receptor (Rattus norvegicus) (UniProt P30969). The experiment in a line: In vitro binding affinity was determined against rat Luteinizing hormone-releasing hormone (LHRH) receptor cloned in CHO cells.
Sequence of Gonadotropin-releasing hormone receptor (Rattus norvegicus) (P30969 whole entry, looked up): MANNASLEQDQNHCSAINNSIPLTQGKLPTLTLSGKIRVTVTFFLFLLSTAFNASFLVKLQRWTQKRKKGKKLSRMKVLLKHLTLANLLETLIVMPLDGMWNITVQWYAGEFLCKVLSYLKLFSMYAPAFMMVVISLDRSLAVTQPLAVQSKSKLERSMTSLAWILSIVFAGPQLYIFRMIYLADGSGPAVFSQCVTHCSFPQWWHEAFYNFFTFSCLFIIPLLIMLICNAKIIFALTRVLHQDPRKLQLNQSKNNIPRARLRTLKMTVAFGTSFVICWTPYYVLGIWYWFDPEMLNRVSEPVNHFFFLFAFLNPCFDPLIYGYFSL

`CC[C@H]1OC(=O)[C@H](C)[C@@H](OC(=O)N2CCOC2)[C@H](C)[C@@H](OC2O[C@H](C)C[C@H](N(C)C(C)C)[C@H]2O)[C@@](C)(OC)C[C@@H](C)C(=O)[C@H](C)[C@H]2N(CCc3ccc(Cl)cc3)C(=O)O[C@]12C` (stereo partly specified) displayed an inhibition constant Ki of 51 nM.
